{"source": "patent US9556179B2", "about": "(BRISTOL-MYERS SQUIBB COMPANY, priority 2012, dated 2017)", "key": {"[1]": {"target": "CK1ε (Homo sapiens (Human), UniProt P49674)", "sequence (P49674 whole entry)": "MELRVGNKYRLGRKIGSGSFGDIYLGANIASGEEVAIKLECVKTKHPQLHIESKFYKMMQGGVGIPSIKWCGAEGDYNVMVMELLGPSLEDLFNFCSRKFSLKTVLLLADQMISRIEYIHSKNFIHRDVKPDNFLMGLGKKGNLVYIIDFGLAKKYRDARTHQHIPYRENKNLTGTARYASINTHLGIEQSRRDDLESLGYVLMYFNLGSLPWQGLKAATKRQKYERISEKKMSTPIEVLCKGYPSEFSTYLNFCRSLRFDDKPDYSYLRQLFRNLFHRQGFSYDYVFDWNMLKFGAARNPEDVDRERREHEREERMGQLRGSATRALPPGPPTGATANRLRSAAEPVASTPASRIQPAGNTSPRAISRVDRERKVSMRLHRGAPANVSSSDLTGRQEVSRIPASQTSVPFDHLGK", "assay": "CK1ε kinase assay (Caliper LABCHIP electrophoretic separation of fluoresceinated peptide substrate and product)", "assay_type": "biochemical", "details": "200 pM enzyme, 50 μM ATP, 22 hours at room temperature", "outline": "(§1)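 Each reaction was incubated 22 hours at room temperature and terminated with EDTA. Read-out was microfluidic electrophoretic separation of fluoresceinated substrate and phospho-product.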"}, "[2]": {"target": "CK1δ (Homo sapiens (Human), UniProt P48730)", "sequence (P48730 whole entry)": "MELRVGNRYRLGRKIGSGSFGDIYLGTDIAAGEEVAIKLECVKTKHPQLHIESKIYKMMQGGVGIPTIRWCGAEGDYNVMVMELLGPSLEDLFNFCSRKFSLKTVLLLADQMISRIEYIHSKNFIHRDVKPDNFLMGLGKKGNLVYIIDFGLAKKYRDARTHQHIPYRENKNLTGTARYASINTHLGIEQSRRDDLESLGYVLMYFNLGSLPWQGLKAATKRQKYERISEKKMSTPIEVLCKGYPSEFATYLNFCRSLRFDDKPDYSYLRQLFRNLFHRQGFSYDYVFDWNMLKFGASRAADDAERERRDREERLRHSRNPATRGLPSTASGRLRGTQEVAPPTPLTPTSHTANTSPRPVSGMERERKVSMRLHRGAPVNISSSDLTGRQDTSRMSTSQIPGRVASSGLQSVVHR", "assay": "CK1δ kinase assay (Caliper LABCHIP electrophoretic separation of fluoresceinated peptide substrate and product)", "assay_type": "biochemical", "details": "200 pM enzyme, 50 μM ATP, 22 hours at room temperature", "outline": "as §1"}}, "data": [{"smiles": "Cc1nc(C(=O)Nc2cn3nc(-c4c(-c5ccc(F)cc5)nc(C)n4C)ccc3n2)c[nH]1", "note": "[Compound 372, N-(6-(4-(4-fluorophenyl)-1,2-dimethyl-1H-imidazol-5-yl)imidazo[1,2-b]pyridazin-2-yl)-2-methyl-1H-imidazole-4-carboxamide]", "values": [{"measurement": "IC50", "setting": "[1]", "value": 28.3, "unit": "nM"}, {"measurement": "IC50", "setting": "[2]", "value": 2.19, "unit": "nM"}]}, {"smiles": "Cc1nc(-c2ccc(F)cc2)c(-c2ccc3nc(NC(=O)c4ncc[nH]4)cn3n2)n1C", "note": "[Compound 373, N-(6-(4-(4-fluorophenyl)-1,2-dimethyl-1H-imidazol-5-yl)imidazo[1,2-b]pyridazin-2-yl)-1H-imidazole-2-carboxamide]", "values": [{"measurement": "IC50", "setting": "[1]", "value": 176, "unit": "nM"}, {"measurement": "IC50", "setting": "[2]", "value": 18.5, "unit": "nM"}]}, {"smiles": "Cc1nc(-c2ccc(F)cc2)c(-c2ccc3nc(NC(=O)c4ccc(C#N)nc4)cn3n2)n1C", "note": "[Compound 374, 6-cyano-N-(6-(4-(4-fluoro-phenyl)-1,2-dimethyl-1H-imidazol-5-yl)imidazo[1,2-b]pyridazin-2-yl)nicotinamide]", "values": [{"measurement": "IC50", "setting": "[1]", "value": 3.95, "unit": "nM"}, {"measurement": "IC50", "setting": "[2]", "value": 0.399, "unit": "nM"}]}, {"smiles": "Cc1nc(-c2ccc(F)cc2)c(-c2ccc3nc(NC(=O)c4ccon4)cn3n2)n1C", "note": "[Compound 375, N-(6-(4-(4-fluorophenyl)-1,2-dimethyl-1H-imidazol-5-yl)imidazo[1,2-b]pyridazin-2-yl)-3-isoxazolecarboxamide]", "values": [{"measurement": "IC50", "setting": "[1]", "value": 16.3, "unit": "nM"}, {"measurement": "IC50", "setting": "[2]", "value": 1.91, "unit": "nM"}]}, {"smiles": "Cc1nc(-c2ccc(F)cc2)c(-c2ccc3nc(NC(=O)[C@@H]4CCC(=O)N4)cn3n2)n1C", "note": "[Compound 376, N-(6-(4-(4-fluorophenyl)-1,2-dimethyl-1H-imidazol-5-yl)imidazo[1,2-b]pyridazin-2-yl)-5-oxo-L-prolinamide]", "values": [{"measurement": "IC50", "setting": "[1]", "value": 78.1, "unit": "nM"}, {"measurement": "IC50", "setting": "[2]", "value": 8.88, "unit": "nM"}]}, {"smiles": "Cc1n[nH]cc1C(=O)Nc1cn2nc(-c3c(-c4ccc(F)cc4)nc(C)n3C)ccc2n1", "note": "[Compound 377, N-(6-(4-(4-fluorophenyl)-1,2-dimethyl-1H-imidazol-5-yl)imidazo[1,2-b]pyridazin-2-yl)-3-methyl-1H-pyrazole-4-carboxamide]", "values": [{"measurement": "IC50", "setting": "[1]", "value": 4.04, "unit": "nM"}, {"measurement": "IC50", "setting": "[2]", "value": 0.656, "unit": "nM"}]}, {"smiles": "Cc1nc(-c2ccc(F)cc2)c(-c2ccc3nc(NC(=O)c4cnoc4)cn3n2)n1C", "note": "[Compound 378, N-(6-(4-(4-fluorophenyl)-1,2-dimethyl-1H-imidazol-5-yl)imidazo[1,2-b]pyridazin-2-yl)-4-isoxazolecarboxamide]", "values": [{"measurement": "IC50", "setting": "[1]", "value": 60, "unit": "nM"}, {"measurement": "IC50", "setting": "[2]", "value": 6.19, "unit": "nM"}]}, {"smiles": "Cc1cc(C(=O)Nc2cn3nc(-c4c(-c5ccc(F)cc5)nc(C)n4C)ccc3n2)on1", "note": "[Compound 379, N-(6-(4-(4-fluorophenyl)-1,2-dimethyl-1H-imidazol-5-yl)imidazo[1,2-b]pyridazin-2-yl)-3-methyl-5-isoxazole-carboxamide]", "values": [{"measurement": "IC50", "setting": "[1]", "value": 4.94, "unit": "nM"}, {"measurement": "IC50", "setting": "[2]", "value": 0.569, "unit": "nM"}]}, {"smiles": "Cc1nc(-c2ccc(F)cc2)c(-c2ccc3nc(NC(=O)c4cnc[nH]4)cn3n2)n1C", "note": "[Compound 380, N-(6-(4-(4-fluorophenyl)-1,2-dimethyl-1H-imidazol-5-yl)imidazo[1,2-b]pyridazin-2-yl)-1H-imidazole-5-carboxamide]", "values": [{"measurement": "IC50", "setting": "[1]", "value": 36.1, "unit": "nM"}, {"measurement": "IC50", "setting": "[2]", "value": 5.23, "unit": "nM"}]}, {"smiles": "Cc1c(C(=O)Nc2cn3nc(-c4c(-c5ccc(F)cc5)nc(C)n4C)ccc3n2)cnn1C", "note": "[Compound 381, N-(6-(4-(4-fluorophenyl)-1,2-dimethyl-1H-imidazol-5-yl)imidazo[1,2-b]pyridazin-2-yl)-1,5-dimethyl-1H-pyrazole-4-carboxamide]", "values": [{"measurement": "IC50", "setting": "[1]", "value": 3.74, "unit": "nM"}, {"measurement": "IC50", "setting": "[2]", "value": 0.754, "unit": "nM"}]}, {"smiles": "Cc1cc(C(=O)Nc2cn3nc(-c4c(-c5ccc(F)cc5)nc(C)n4C)ccc3n2)on1", "note": "[Compound 382, N-(6-(4-(4-fluorophenyl)-1,2-dimethyl-1H-imidazol-5-yl)imidazo[1,2-b]pyridazin-2-yl)-3-methyl-5-isoxazole-carboxamide]", "values": [{"measurement": "IC50", "setting": "[1]", "value": 103, "unit": "nM"}, {"measurement": "IC50", "setting": "[2]", "value": 21.9, "unit": "nM"}]}, {"smiles": "Cc1nc(-c2ccc(F)cc2)c(-c2ccc3nc(NC(=O)c4ncccn4)cn3n2)n1C", "note": "[Compound 383, N-(6-(4-(4-fluorophenyl)-1,2-dimethyl-1H-imidazol-5-yl)imidazo[1,2-b]pyridazin-2-yl)pyrimidine-2-carboxamide]", "values": [{"measurement": "IC50", "setting": "[1]", "value": 17.3, "unit": "nM"}, {"measurement": "IC50", "setting": "[2]", "value": 6.34, "unit": "nM"}]}]}
